Test results as given in patent US20240279240A1, “HETEROCYCLIC DERIVATIVES AS JANUS KINASE INHIBITORS” (CHIESI FARMACEUTICI S.P.A., priority 2021, published 2024).

What was measured:
TYK2 = TYK2 (Homo sapiens, UniProt P29597); test: Biochemical potency on Tyk2, TR-FRET LANCE Ultra kinase assay (examples 1-99); conditions: ATP at Km (12 μM), read-out: Tyk2 inhibitory activity (pIC50 class) (converted)
How it was run: (§1)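 LANCE Ultra TR-FRET with ULight-JAK-1 (Tyr1023) peptide at 30/50/20/10 nM and ATP (~Km) at 20/0.7/0.2/12 μM for JAK1/JAK2/JAK3/TYK2; enzymes 0.15/0.083/0.025/0.144 ng/μL. 1.5 h at r.t., EDTA stop, Eu-anti-phosphotyrosine read. 11-point 5-fold series from 20 μM; IC50 by variable-slope fit.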

JAK 2 = JAK 2 (Homo sapiens, UniProt O60674); test: Biochemical potency on JAK2, TR-FRET LANCE Ultra kinase assay (examples 1-99); conditions: ATP at Km (0.7 μM), read-out: JAK2 inhibitory activity (pIC50 class) (converted)
How it was run: as §1

JAK 3 = target: T1, JAK 3 (Homo sapiens, UniProt P52333); test: Biochemical potency on JAK3, TR-FRET LANCE Ultra kinase assay (examples 1-99); conditions: ATP at Km (0.2 μM), read-out: JAK3 inhibitory activity (pIC50 class) (converted)
T1 sequence (P52333 1-1124): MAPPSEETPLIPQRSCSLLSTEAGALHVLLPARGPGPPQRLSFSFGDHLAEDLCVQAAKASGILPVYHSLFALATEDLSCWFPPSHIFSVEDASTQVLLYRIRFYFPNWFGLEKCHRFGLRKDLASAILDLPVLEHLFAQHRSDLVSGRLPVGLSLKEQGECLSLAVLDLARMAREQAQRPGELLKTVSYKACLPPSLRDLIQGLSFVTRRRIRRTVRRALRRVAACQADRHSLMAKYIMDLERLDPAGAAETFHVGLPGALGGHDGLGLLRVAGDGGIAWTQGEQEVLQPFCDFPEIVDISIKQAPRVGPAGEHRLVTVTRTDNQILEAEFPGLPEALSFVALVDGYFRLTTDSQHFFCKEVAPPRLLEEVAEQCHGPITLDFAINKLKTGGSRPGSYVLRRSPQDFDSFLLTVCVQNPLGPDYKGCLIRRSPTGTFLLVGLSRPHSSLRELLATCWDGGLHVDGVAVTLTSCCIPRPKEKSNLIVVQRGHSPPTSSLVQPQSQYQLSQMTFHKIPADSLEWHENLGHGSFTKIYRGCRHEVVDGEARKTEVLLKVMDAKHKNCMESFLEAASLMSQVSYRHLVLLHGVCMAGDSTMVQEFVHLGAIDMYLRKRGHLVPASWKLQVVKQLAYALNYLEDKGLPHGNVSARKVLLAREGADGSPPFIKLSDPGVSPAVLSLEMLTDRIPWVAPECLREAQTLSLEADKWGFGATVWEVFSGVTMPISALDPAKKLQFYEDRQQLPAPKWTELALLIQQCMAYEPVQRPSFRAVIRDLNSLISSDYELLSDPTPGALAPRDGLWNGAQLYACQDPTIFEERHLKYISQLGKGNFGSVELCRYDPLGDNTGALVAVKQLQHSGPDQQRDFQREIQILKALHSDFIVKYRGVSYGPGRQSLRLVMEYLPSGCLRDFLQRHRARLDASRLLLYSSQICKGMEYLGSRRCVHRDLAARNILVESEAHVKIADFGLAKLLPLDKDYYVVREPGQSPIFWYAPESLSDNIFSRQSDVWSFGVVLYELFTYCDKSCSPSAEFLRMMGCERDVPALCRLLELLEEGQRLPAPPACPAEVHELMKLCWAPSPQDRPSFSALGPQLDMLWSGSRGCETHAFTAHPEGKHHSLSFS
How it was run: as §1

JAK 1 = JAK 1 (Homo sapiens, UniProt P23458); test: Biochemical potency on JAK1, TR-FRET LANCE Ultra kinase assay (examples 1-99); conditions: ATP at Km (20 μM), read-out: JAK1 inhibitory activity (pIC50 class) (converted)
How it was run: as §1

Chain of JAK 2 (O60674 whole entry): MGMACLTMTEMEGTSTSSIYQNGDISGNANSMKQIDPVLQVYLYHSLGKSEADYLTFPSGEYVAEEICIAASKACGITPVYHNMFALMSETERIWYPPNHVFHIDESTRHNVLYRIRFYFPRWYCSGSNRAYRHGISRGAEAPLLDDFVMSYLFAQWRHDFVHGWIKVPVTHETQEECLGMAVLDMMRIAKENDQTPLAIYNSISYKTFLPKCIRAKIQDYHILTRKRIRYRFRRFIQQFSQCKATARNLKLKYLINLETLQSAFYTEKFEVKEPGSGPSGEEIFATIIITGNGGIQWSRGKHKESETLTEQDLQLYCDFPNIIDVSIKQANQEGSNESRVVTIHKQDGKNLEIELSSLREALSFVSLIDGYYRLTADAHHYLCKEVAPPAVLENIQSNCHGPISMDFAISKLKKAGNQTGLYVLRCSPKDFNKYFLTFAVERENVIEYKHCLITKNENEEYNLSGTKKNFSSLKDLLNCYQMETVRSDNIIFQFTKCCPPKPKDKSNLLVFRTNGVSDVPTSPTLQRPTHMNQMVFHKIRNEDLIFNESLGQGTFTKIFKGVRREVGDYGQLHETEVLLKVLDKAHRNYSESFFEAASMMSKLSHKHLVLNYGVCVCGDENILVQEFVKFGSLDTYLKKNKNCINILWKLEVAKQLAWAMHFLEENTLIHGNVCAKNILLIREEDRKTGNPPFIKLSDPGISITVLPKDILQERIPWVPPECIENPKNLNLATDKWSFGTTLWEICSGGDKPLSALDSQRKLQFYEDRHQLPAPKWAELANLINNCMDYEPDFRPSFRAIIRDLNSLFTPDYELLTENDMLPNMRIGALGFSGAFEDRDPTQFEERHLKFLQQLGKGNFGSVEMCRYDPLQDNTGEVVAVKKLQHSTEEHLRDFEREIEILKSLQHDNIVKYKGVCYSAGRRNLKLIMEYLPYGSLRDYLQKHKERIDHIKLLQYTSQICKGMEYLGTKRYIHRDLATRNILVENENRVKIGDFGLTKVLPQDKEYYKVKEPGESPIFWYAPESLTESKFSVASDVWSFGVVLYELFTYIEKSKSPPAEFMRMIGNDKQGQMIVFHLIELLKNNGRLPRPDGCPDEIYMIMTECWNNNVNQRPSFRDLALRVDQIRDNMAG
Chain of TYK2 (P29597 whole entry): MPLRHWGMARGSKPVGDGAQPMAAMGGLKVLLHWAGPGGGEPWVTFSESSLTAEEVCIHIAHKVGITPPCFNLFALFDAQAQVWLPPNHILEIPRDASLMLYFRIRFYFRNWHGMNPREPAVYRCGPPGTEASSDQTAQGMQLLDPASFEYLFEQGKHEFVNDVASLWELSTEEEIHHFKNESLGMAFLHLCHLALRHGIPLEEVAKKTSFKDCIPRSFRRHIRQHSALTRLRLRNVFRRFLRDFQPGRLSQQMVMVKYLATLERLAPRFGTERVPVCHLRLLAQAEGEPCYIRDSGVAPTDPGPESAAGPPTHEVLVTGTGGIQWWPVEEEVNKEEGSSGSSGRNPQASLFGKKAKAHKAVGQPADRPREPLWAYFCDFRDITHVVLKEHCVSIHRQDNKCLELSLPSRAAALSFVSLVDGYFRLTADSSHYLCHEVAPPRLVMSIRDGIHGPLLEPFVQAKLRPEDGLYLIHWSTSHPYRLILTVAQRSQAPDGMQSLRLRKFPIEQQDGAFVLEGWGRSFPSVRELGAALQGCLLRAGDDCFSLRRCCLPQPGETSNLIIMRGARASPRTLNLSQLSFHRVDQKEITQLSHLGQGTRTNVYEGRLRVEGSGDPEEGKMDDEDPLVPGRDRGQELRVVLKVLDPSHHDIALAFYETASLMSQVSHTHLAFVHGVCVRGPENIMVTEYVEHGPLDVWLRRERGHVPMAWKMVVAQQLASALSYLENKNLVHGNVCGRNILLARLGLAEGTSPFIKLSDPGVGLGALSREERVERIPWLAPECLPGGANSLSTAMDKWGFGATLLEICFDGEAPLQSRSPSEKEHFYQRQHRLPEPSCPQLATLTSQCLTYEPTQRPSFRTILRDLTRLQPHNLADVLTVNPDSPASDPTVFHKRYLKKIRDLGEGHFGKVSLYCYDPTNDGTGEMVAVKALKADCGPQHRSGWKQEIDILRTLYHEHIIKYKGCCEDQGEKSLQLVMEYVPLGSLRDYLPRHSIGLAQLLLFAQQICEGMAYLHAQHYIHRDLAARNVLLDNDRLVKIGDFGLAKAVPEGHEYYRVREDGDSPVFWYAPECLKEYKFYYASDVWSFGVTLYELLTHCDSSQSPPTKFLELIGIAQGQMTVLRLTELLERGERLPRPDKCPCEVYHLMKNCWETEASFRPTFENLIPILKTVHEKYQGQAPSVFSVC
Chain of JAK 1 (P23458 whole entry): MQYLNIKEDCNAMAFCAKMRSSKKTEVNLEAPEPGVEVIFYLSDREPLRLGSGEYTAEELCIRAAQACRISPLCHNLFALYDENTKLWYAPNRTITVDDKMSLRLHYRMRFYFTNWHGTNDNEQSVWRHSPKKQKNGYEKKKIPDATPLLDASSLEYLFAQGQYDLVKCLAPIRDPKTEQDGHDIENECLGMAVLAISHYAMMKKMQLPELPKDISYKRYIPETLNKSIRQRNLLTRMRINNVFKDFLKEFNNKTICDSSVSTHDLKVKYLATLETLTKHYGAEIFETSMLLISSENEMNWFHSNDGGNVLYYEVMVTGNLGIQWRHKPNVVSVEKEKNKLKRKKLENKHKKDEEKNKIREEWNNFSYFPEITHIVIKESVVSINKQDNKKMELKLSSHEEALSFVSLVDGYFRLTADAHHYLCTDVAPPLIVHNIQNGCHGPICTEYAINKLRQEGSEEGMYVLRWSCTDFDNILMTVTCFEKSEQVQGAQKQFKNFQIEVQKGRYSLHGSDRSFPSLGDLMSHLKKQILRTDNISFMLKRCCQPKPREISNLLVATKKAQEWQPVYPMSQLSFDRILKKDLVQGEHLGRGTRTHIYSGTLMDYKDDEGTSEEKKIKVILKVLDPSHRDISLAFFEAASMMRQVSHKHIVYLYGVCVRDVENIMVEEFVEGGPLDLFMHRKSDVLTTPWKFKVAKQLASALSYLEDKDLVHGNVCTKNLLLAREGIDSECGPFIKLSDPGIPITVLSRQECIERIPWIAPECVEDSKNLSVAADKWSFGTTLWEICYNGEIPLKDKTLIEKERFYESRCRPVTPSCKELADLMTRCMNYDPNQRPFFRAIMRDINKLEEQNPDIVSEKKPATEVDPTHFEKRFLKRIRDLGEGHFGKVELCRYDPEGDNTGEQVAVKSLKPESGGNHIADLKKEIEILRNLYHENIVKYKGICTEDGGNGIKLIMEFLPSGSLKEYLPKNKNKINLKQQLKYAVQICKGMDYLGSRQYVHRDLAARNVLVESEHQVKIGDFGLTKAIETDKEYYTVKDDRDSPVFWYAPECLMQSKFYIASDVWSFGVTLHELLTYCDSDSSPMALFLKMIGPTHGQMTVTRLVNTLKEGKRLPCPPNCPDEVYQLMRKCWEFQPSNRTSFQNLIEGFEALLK

IC50 (TYK2) [nM]	IC50 (JAK 2) [nM]	IC50 (JAK 3) [nM]	IC50 (JAK 1) [nM]	Compound
> 50.1	5.01 to 50.1	5.01 to 50.1	5.01 to 50.1	COc1ccc(F)cc1-n1nc(C(=O)NCCCN(C)C)c2cnc(-c3cnn4cccnc34)cc21 [Example 38, N-(3-(dimethylamino)propyl)-1-(5-fluoro-2-methoxyphenyl)-6-(pyrazolo[1,5-a]pyrimidin-3-yl)-1H-pyrazolo[4,3-c]pyridine-3-carboxamide]
5.01 to 50.1	≤ 5.01	≤ 5.01	≤ 5.01	COc1ccc(Cl)cc1-n1nc(N)c2cnc(-c3cnn4cccnc34)cc21 [Example 39, 1-(5-chloro-2-methoxyphenyl)-6-(pyrazolo[1,5-a]pyrimidin-3-yl)-1H-pyrazolo[4,3-c]pyridin-3-amine]
5.01 to 50.1	5.01 to 50.1	≤ 5.01	5.01 to 50.1	Cc1nn(-c2cc(Cl)ccc2SC(F)F)c2cc(-c3cnn4cccnc34)ncc12 [Example 6, 1-(5-chloro-2-((difluoromethyl)thio)phenyl)-3-methyl-6-(pyrazolo[1,5-a]pyrimidin-3-yl)-1H-pyrazolo[4,3-c]pyridine]
> 50.1	5.01 to 50.1	5.01 to 50.1	5.01 to 50.1	COc1ccc(S(C)(=O)=O)cc1-n1nc(C(=O)NCCN(C)C)c2cnc(-c3cnn4cccnc34)cc21 [Example 82, N-(2-(dimethylamino)ethyl)-1-(2-methoxy-5-(methylsulfonyl)phenyl)-6-(pyrazolo[1,5-a]pyrimidin-3-yl)-1H-pyrazolo[4,3-c]pyridine-3-carboxamide]
5.01 to 50.1	5.01 to 50.1	5.01 to 50.1	5.01 to 50.1	COc1ccc(Cl)cc1-n1nc(N2CCNCC2)c2cnc(-c3cnn4cccnc34)cc21 [Example 48, 1-(5-chloro-2-methoxyphenyl)-3-(piperazin-1-yl)-6-(pyrazolo[1,5-a]pyrimidin-3-yl)-1H-pyrazolo[4,3-c]pyridine]
> 50.1	5.01 to 50.1	5.01 to 50.1	5.01 to 50.1	COc1ccc(Cl)cc1-n1nc(N2CCN(C(C)=O)CC2)c2cnc(-c3cnn4cccnc34)cc21 [Example 47, 1-(4-(1-(5-chloro-2-methoxyphenyl)-6-(pyrazolo[1,5-a]pyrimidin-3-yl)-1H-pyrazolo[4,3-c]pyridin-3-yl)piperazin-1-yl)ethan-1-one]
> 50.1	5.01 to 50.1	5.01 to 50.1	5.01 to 50.1	Cc1nn(-c2cc(S(=O)(=O)CCCN(C)C)ccc2OC(F)F)c2cc(-c3cnn4cccnc34)ncc12 [Example 21, 3-((4-(difluoromethoxy)-3-(3-methyl-6-(pyrazolo[1,5-a]pyrimidin-3-yl)-1H-pyrazolo[4,3-c]pyridin-1-yl)phenyl)sulfonyl)-N,N-dimethylpropan-1-amine]
5.01 to 50.1	5.01 to 50.1	5.01 to 50.1	5.01 to 50.1	COc1ccc(F)cc1-n1nc(C(=O)NCCCN(C)C)c2cnc(Nc3ncc[nH]c3=O)cc21 [Example 96, N-(3-(dimethylamino)propyl)-1-(5-fluoro-2-methoxyphenyl)-6-((3-oxo-3,4-dihydropyrazin-2-yl)amino)-1H-pyrazolo[4,3-c]pyridine-3-carboxamide]
5.01 to 50.1	≤ 5.01	≤ 5.01	≤ 5.01	Cc1nn(-c2cc(S(C)(=O)=O)ccc2OC(F)F)c2cc(-c3cnn4cccnc34)ncc12 [Example 26, 1-(2-(difluoromethoxy)-5-(methylsulfonyl)phenyl)-3-methyl-6-(pyrazolo[1,5-a]pyrimidin-3-yl)-1H-pyrazolo[4,3-c]pyridine]
> 50.1	5.01 to 50.1	> 50.1	> 50.1	COc1ccc(S(=O)(=O)NCCCN2CCN(C)CC2)cc1-n1nc(C)c2cnc(-c3cnn4cccnc34)cc21 [Example 16, 4-methoxy-3-(3-methyl-6-(pyrazolo[1,5-a]pyrimidin-3-yl)-1H-pyrazolo[4,3-c]pyridin-1-yl)-N-(3-(4-methylpiperazin-1-yl)propyl)benzenesulfonamide]
